Where two headings read alike, the source gives them in different places. Marks after values point to notes of the source that are not given here.
Tests used:
[1] = tested on: Madin-Darby bovine kidney (MDBK) cells; assay: Cytotoxicity in MDBK cells (drug toxicity control wells, XTT)
Procedure: (§1) Madin-Darby bovine kidney (MDBK) cells were passaged in T-75 flasks for use in the assay. On the day preceding the assay, the cells were trypsinized, pelleted, counted and resuspended at 6×10^4/well in tissue culture medium. Cells were added to 96 well flat bottom plates in a volume of 100 μl per well.
(§2) Interferon was purchased from PBL Biomedical Laboratories (New Brunswick, N.J.) and was in PBS solutions. On the day of testing, the drug stock is diluted in the medium to the desired high concentration and then further diluted in the medium in half log series.
(§3) The day following plating of cells, plates are removed from the incubator, and medium is removed and discarded. Drug dilutions are added to appropriate wells of the microtiter plate in a volume of 100 μl per well. Each dilution is set up in triplicate. Complete medium or complete medium containing appropriately diluted virus is added to appropriate wells in a volume of 100 μl per well.
(§4) The format of the test plate has been standardized. Each plate contains cell control wells (cell only), virus control wells (cells plus virus), drug toxicity control wells (cells plus drug only), drug colorimetric control wells (drug only) as well as experimental wells (drugs plus cells plus virus).
(§5) The cell viability was evaluated by a dye (XTT) uptake procedure. XTT-tetraolium is metabolized by the mitochontrial enzymes of metabolically active cells to a soluble formazan product, allowing the rapid quantitative analysis of the inhibition of virus-induced cell killing by antiviral test substances.
(§6) XTT solution was prepared daily as a stock of 1 mg/ml in PBS. Phenazine methosulfate (PMS) solution was prepared at 15 mg/ml in PVBS and stored in the dark at −20° C. STT/PMS stock was prepared immediately before use by diluting PMS 1:100 into PBS and adding 40 μl per ml of XTT solution. Fifty microliters of XTT/PMS was added to each well of the plate (each well had been loaded with 100 μl fresh medium) and the plate was reincubated for 4 hours at 37° C.
(§7) Adhesive plate sealers were used in place of the lids, the sealed plate was inverted several times to mix the soluble formazan product and the plate was read spectrophotometrically at 450 nm (XTT) with a Molecular Devices Vmax plate reader.
(§8) The efficacy and toxicity of inteferons are analyzed using a computer program (developed by Southern Research Institute) which calculates % CPE reduction, % cell viability, IC25,50 & 95, TC5,50 & 95 and other indices.
(§9) Combination effects are analyzed statistically by Prichard and Shipman method. Effects of the drug combination on efficacy and toxicity are calculated based on the activity or toxicity of the two compounds when tested alone. The expected additive inhibition rate of virus production or the expected additive cell viability rate subtracted from the experimentally determined inhibition rate or viability rate at each combination concentration results in a positive value (synergy), a negative value (antagonism), or zero (addivity).

[2] = tested on: BVDV; assay: BVDV antiviral assay in MDBK cells, XTT readout of inhibition of virus-induced cell killing; type: cell-based; details: for Comments: activity against BVDV / toxicity; for TI: TC50/IC50
Procedure: as §1
A pretitered aliquot of virus is removed from the freezer (−80° C.) and allowed to thaw slowly to room temperature in a biological safety cabinet. The virus is diluted into tissue culture medium such that the amount of virus added to each well in a volume of 100 μl will be the amount determined to give complete cell killing at 6 days post-infection.
as §2, §3, §4, §5, §6, §7, §8, §9

[3] = Compound conc 0.020, INF-αA conc 0
[4] = Compound conc 0.020, Ribavirin conc 0
[5] = Compound conc 0.063, INF-αA conc 0
[6] = Compound conc 0.063, Ribavirin conc 0
[7] = Compound conc 0.200, INF-αA conc 0
[8] = Compound conc 0.200, Ribavirin conc 0
[9] = Compound conc 0.633, INF-αA conc 0
[10] = Compound conc 0.633, Ribavirin conc 0
[11] = Compound conc 2.00, INF-αA conc 0
[12] = Compound conc 2.00, Ribavirin conc 0

Molecule: NC(=O)c1ncn([C@@H]2O[C@H](CO)[C@@H](O)[C@H]2O)n1 [Ribavirin, 1-β-D-ribofuranosyl-1H-1,2,4-triazole-3carboxamide, reference compound]
- TC50 ([1]; MDBK cells, unit per footnote): 7.19* μg/ml
- IC50 ([2]; Bovine viral diarrhea virus isolates and strains, MDBK): 0.66 µg/mL
- Antiviral Percentage Inhibition ([2]; Compound conc 0, Ribavirin conc 0.075): 0%
- Antiviral Percentage Inhibition ([2]; Compound conc 0, Ribavirin conc 0.238): 5.2%
- Antiviral Percentage Inhibition ([2]; Compound conc 0, Ribavirin conc 0.751): 5%
- Antiviral Percentage Inhibition ([2]; Compound conc 0, Ribavirin conc 2.373): 7.9%
- Antiviral Percentage Inhibition ([2]; Compound conc 0, Ribavirin conc 7.5): 43.7%
- Antiviral Percentage Inhibition ([2]; Ribavirin conc 0.075, INF-αA conc 0): 0%
- Antiviral Percentage Inhibition ([2]; Ribavirin conc 0.238, INF-αA conc 0): 5%
- Antiviral Percentage Inhibition ([2]; Ribavirin conc 0.751, INF-αA conc 0): 3%
- Antiviral Percentage Inhibition ([2]; Ribavirin conc 2.373, INF-αA conc 0): 31.5%
- Antiviral Percentage Inhibition ([2]; Ribavirin conc 7.500, INF-αA conc 0): 41.6%
- Comments [2]: Active/Toxic

Molecule: (5-Phenyl-1,2,4-thiadiazol)-3-yl thiourea [Compound]
- Cytotoxicity Percentage [1, 3]: 0%
- Cytotoxicity Percentage [1, 4]: 16.3%
- Cytotoxicity Percentage [1, 5]: 5.8%
- Cytotoxicity Percentage [1, 6]: 6.7%
- Cytotoxicity Percentage [1, 7]: 8.3%
- Cytotoxicity Percentage [1, 8]: 6.2%
- Cytotoxicity Percentage [1, 9]: 13.5%
- Cytotoxicity Percentage [1, 10]: 16.9%
- Cytotoxicity Percentage [1, 11]: 10.3%
- Cytotoxicity Percentage [1, 12]: 18.8%
- combination effect on toxicity of ribavirin towards the cells ([1]; in vitro): imposes antagonistic effect on toxicity of ribavirin
- Antiviral Percentage Inhibition [2, 3]: 5.8%
- Antiviral Percentage Inhibition [2, 4]: 7.3%
- Antiviral Percentage Inhibition [2, 5]: 7%
- Antiviral Percentage Inhibition [2, 6]: 5%
- Antiviral Percentage Inhibition [2, 7]: 4%
- Antiviral Percentage Inhibition [2, 8]: 3.6%
- Antiviral Percentage Inhibition [2, 9]: 11.7%
- Antiviral Percentage Inhibition [2, 10]: 7.6%
- Antiviral Percentage Inhibition [2, 11]: 25.9%
- Antiviral Percentage Inhibition [2, 12]: 29.5%
- combination effect on activity against BVDV in vitro (words) ([2]; listed as (5-Phenyl -1,2,4-thiadiazol)-3-yl thiourea): acts synergistically with INF-αA
- combination effect on activity against BVDV in vitro (words) ([2]; listed as (5-Phenyl-1,2,4-thiadiazol)-3-yl thiourea): does not have antagonistic effect on activity of ribavirin

Molecule: INF-α I: human IFN-α species I
- TC50 [1]: >316.00 U/ml
- IC50 ([2]; BVDV in MDBK cells): 26.80 U/ml
- TI [2]: >11.81
- Comments [2]: Active/Nontoxic

B1: INF-α WA: human IFN-α species WA (protein, UniProt P05015 24-189, looked up)
Interferon alpha-16: CDLPQTHSLGNRRALILLAQMGRISHFSCLKDRYDFGFPQEVFDGNQFQKAQAISAFHEMIQQTFNLFSTKDSSAAWDETLLDKFYIELFQQLNDLEACVTQEVGVEEIALMNEDSILAVRKYFQRITLYLMGKKYSPCAWEVVRAEIMRSFSFSTNLQKGLRRKD
- TC50 [1]: >316.00 U/ml
- IC50 ([2]; BVDV in MDBK cells): 6.75 U/ml
- TI [2]: >46.78
- Comments [2]: Active/Nontoxic

B2: INF-α K: human IFN-α species K (protein, UniProt P05013 21-189, looked up)
Interferon alpha-6: SLDCDLPQTHSLGHRRTMMLLAQMRRISLFSCLKDRHDFRFPQEEFDGNQFQKAEAISVLHEVIQQTFNLFSTKDSSVAWDERLLDKLYTELYQQLNDLEACVMQEVWVGGTPLMNEDSILAVRKYFQRITLYLTEKKYSPCAWEVVRAEIMRSFSSSRNLQERLRRKE
- TC50 [1]: >316.00 U/ml
- IC50 ([2]; BVDV in MDBK cells): 24.80 U/ml
- TI [2]: >12.72
- Comments [2]: Active/Nontoxic

B3: INF-α J1: human IFN-α species J1 (protein, UniProt P01567 24-189, looked up)
Interferon alpha-7: CDLPQTHSLRNRRALILLAQMGRISPFSCLKDRHEFRFPEEEFDGHQFQKTQAISVLHEMIQQTFNLFSTEDSSAAWEQSLLEKFSTELYQQLNDLEACVIQEVGVEETPLMNEDFILAVRKYFQRITLYLMEKKYSPCAWEVVRAEIMRSFSFSTNLKKGLRRKD
- TC50 [1]: >316.00 U/ml
- IC50 ([2]; BVDV in MDBK cells): 10.60 U/ml
- TI [2]: >29.90
- Comments [2]: Active/Nontoxic

B4: INF-α D: human IFN-α species D (protein, UniProt P01562 24-189, looked up)
Interferon alpha-1/13: CDLPETHSLDNRRTLMLLAQMSRISPSSCLMDRHDFGFPQEEFDGNQFQKAPAISVLHELIQQIFNLFTTKDSSAAWDEDLLDKFCTELYQQLNDLEACVMQEERVGETPLMNADSILAVKKYFRRITLYLTEKKYSPCAWEVVRAEIMRSLSLSTNLQERLRRKE
- TC50 [1]: >316.00 U/ml
- IC50 ([2]; BVDV in MDBK cells): 11.60 U/ml
- TI [2]: >27.31
- Comments [2]: Active/Nontoxic

B5: INF-α H2: human IFN-α species H2 (protein, UniProt P01570 24-189, looked up)
Interferon alpha-14: CNLSQTHSLNNRRTLMLMAQMRRISPFSCLKDRHDFEFPQEEFDGNQFQKAQAISVLHEMMQQTFNLFSTKNSSAAWDETLLEKFYIELFQQMNDLEACVIQEVGVEETPLMNEDSILAVKKYFQRITLYLMEKKYSPCAWEVVRAEIMRSLSFSTNLQKRLRRKD
- TC50 [1]: >316.00 U/ml
- IC50 ([2]; BVDV in MDBK cells): 7.00 U/ml
- TI [2]: >45.12
- Comments [2]: Active/Nontoxic

B6: INF-α C: human IFN-α species C (protein, UniProt P01566 24-189, looked up)
Interferon alpha-10: CDLPQTHSLGNRRALILLGQMGRISPFSCLKDRHDFRIPQEEFDGNQFQKAQAISVLHEMIQQTFNLFSTEDSSAAWEQSLLEKFSTELYQQLNDLEACVIQEVGVEETPLMNEDSILAVRKYFQRITLYLIERKYSPCAWEVVRAEIMRSLSFSTNLQKRLRRKD
- TC50 [1]: >316.00 U/ml
- IC50 ([2]; BVDV in MDBK cells): 9.12 U/ml
- TI [2]: >34.66
- Comments [2]: Active/Nontoxic

B7: INF-α G: human IFN-α species G (protein, UniProt P01569 22-189, looked up)
Interferon alpha-5: LGCDLPQTHSLSNRRTLMIMAQMGRISPFSCLKDRHDFGFPQEEFDGNQFQKAQAISVLHEMIQQTFNLFSTKDSSATWDETLLDKFYTELYQQLNDLEACMMQEVGVEDTPLMNVDSILTVRKYFQRITLYLTEKKYSPCAWEVVRAEIMRSFSLSANLQERLRRKE
- TC50 [1]: >316.00 U/ml
- IC50 ([2]; BVDV in MDBK cells): 23.60 U/ml
- TI [2]: >13.40
- Comments [2]: Active/Nontoxic

B8: INF-α F: human IFN-α species F (protein, UniProt P01568 24-189, looked up)
Interferon alpha-21: CDLPQTHSLGNRRALILLAQMGRISPFSCLKDRHDFGFPQEEFDGNQFQKAQAISVLHEMIQQTFNLFSTKDSSATWEQSLLEKFSTELNQQLNDLEACVIQEVGVEETPLMNVDSILAVKKYFQRITLYLTEKKYSPCAWEVVRAEIMRSFSLSKIFQERLRRKE
- TC50 [1]: >316.00 U/ml
- IC50 ([2]; BVDV in MDBK cells): 33.00 U/ml
- TI [2]: >9.57
- Comments [2]: Active/Nontoxic

— patent publication US6340696B1, “Viral treatment” (The Procter & Gamble Company, priority 1999, dated 2002)
